In US8304394B2, “Low side effect pharmaceutical composition containing isoniazid” (priority 2008, dated 2012):
Where two headings read alike, the source gives them in different places.

Key:
[1] = tested on: Male SD (Sprague-Dawley) rats; assay: Liver histopathology by light and electron microscopy in the rat INH study; type: in vivo
Procedure: (§1) Animals were randomized into one of five groups, each involving three treatments. The first treatment involved either a BNPP injection of 25 mg/kg or a BNPP vehicle (VEH1) injection (saline). […] The second treatment involved injections of either 100 mg/kg DSF or DSF vehicle (VEH2, corn oil). DSF was dissolved in corn oil and i.p. injected at a volume of […]. The third treatment involved injections of INH (25 mg/kg) or INH vehicle (VEH3, saline). INH was dissolved in saline (0.9% NaCl), and i.p. injected at a volume of […]. The first treatment (BNPP or VEH1) was administered 30 minutes before the third treatment (INH or VEH3), and the second treatment (DSF or VEH2) was administered 15 minutes before the third treatment (INH or VEH3).
• (1) Normal control group (NC, n=12): continuously injections of VEH1, VEH2 and VEH3 intraperitoneally once every day for 21 days; • (2) INH group (INH, n=7): continuously injections of INH, VEH1 and VEH2 intraperitoneally once every day for 21 days; • (3) BNPP-INH group (BNPP-INH, n=7): continuously injections of BNPP, INH and VEH2 intraperitoneally once every day for 21 days; • (4) DSF-INH group (DSF-INH, n=7): continuously injections of DSF, INH and VEH1 intraperitoneally once every day for 21 days; • (5) BNPP-DSF-INH group (BNPP-DSF-INH, n=7): continuously injections of BNPP DSH and INH intraperitoneally once every day for 21 days;
After the rats were sacrificed, the livers were subjected to histology analysis.

[2] = tested on: Male SD (Sprague-Dawley) rats; assay: Galactose elimination capacity (GEC) residual liver function test in the rat INH study; type: in vivo; conditions: i.p. once daily for 21 days, galactose 0.5 g/kg i.v., mean±SD, control 4.9±0.8
Procedure: as §1
• (1) Normal control group (NC, n=12): continuously injections of VEH1, VEH2 and VEH3 intraperitoneally once every day for 21 days; • (2) INH group (INH, n=7): continuously injections of INH, VEH1 and VEH2 intraperitoneally once every day for 21 days; • (3) BNPP-INH group (BNPP-INH, n=7): continuously injections of BNPP, INH and VEH2 intraperitoneally once every day for 21 days; • (4) DSF-INH group (DSF-INH, n=7): continuously injections of DSF, INH and VEH1 intraperitoneally once every day for 21 days; • (5) BNPP-DSF-INH group (BNPP-DSF-INH, n=7): continuously injections of BNPP DSH and INH intraperitoneally once every day for 21 days; […]

[3] = tested on: Male SD (Sprague-Dawley) rats; assay: Rat 21-day INH hepatotoxicity study: plasma AST/ALT, body and relative liver weight; conditions: i.p. once daily for 21 days, INH 25 mg/kg, mean±SD
[4] = target: T1, human liver microsomal cytochrome P450 2E1 (CYP2E1) (Homo sapiens, UniProt P05181); assay: Chlorzoxazone hydroxylation inhibition (6-OH-CZX by LC/MS/MS)
[5] = target: T2, cDNA expressed human cytochrome P450 2E1 (CYP2E1) (Homo sapiens, UniProt P05181)
[6] = tested on: rabbits; conditions: pretreatment with amidase inhibitor; cited from earlier work
[7] = target: T1, human liver microsomal cytochrome P450 2E1 (CYP2E1); conditions: for 6-OH-CZX concentration: human, 30 min, pH 7.4
[8] = target: T3, CYP2E1 (Homo sapiens, UniProt P05181); assay: in vitro; conditions: for inhibition at 40 min, 16.5 µM: tested concentration 16.5 μM
[9] = target: T3, CYP2E1; assay: Chlorzoxazone hydroxylation inhibition (6-OH-CZX by LC/MS/MS); conditions: human, microsomes, pH 7.4
[10] = target: T2, cDNA expressed human cytochrome P450 2E1 (CYP2E1); conditions: 40 min, pH 7.4
[11] = pH 7.4, Inhibition of CYP 2E1 (%)

T2 sequence (P05181 whole entry): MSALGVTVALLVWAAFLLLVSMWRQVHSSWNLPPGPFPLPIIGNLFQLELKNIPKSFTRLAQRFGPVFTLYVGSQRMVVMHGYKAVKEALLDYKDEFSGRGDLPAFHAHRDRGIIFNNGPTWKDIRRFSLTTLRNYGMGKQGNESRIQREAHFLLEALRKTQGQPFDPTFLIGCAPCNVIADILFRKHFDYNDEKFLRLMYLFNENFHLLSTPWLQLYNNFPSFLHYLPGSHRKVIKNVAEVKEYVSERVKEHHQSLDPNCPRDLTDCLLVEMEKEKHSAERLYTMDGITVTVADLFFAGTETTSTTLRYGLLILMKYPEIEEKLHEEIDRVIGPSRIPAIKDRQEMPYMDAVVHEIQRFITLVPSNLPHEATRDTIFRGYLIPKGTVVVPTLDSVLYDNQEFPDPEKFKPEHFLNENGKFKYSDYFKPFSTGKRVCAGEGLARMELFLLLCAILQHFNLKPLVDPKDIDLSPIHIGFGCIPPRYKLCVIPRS
T3 sequence (P05181 whole entry): as above
T1 sequence (P05181 whole entry): as above

## NNC(=O)c1ccncc1 [INH, isoniazid]
[1]; daily i.p. injections for three weeks
  hepatic necrosis (EM results): no hepatic necrosis was observed
[1]; daily i.p. injections for three weeks, versus control group
  liver injury (histopathology): hepatocellular damage
[1]; electron microscopy 9,000×
  hepatocyte rough endoplasmic reticulum (rER) versus control: increased significantly
[2]
  GEC value: 3.4±0.6 mg/min·kg
[3]; control 44±6
  peak plasma ALT activity: 52±3 IU/L
[3]; control 116±11
  peak plasma AST activity: 129±10 IU/L

## COc1c(O)cc2oc(Oc3ccc(O)cc3)cc(=O)c2c1O [Capillarisin]
[4]; tested concentration 16.5 μM
  Inhibition of CYP 2E1 (%): 32.89 ± 2.46%
[4]; tested concentration 33 μM
  Inhibition of CYP 2E1 (%): 46.22 ± 2.65%
[4]; tested concentration 66 μM
  Inhibition of CYP 2E1 (%): 57.31 ± 1.31%
[5]; tested concentration 16.5 μM
  Inhibition of CYP 2E1 (%): 49.05 ± 5.18%
[5]; tested concentration 33 μM
  Inhibition of CYP 2E1 (%): 60.54 ± 5.91%
[5]; tested concentration 66 μM
  Inhibition of CYP 2E1 (%): 76.12 ± 1.89%

## O=[N+]([O-])c1ccc(OP(=O)(O)Oc2ccc([N+](=O)[O-])cc2)cc1 [BNPP, bis-p-nitrophenyl phosphate]
[6]
  effect on isoniazid-induced hepatotoxicity: can prevent isoniazid-induced hepatotoxicity

## CC(Cc1ccc(O)c(O)c1)C(C)Cc1ccc(O)c(O)c1 (stereo not shown) [Nordihydroguaiaretic acid]
[7]; microsomes, 33 µM
  Inhibition of CYP 2E1 (%): 67.68. ± 2.24%
[8]; pH 7.4
  inhibition at 40 min, 33 µM: 92.4 ± 2.2%
[8]; [11]
  inhibition at 40 min, 16.5 µM: 76.5 ± 3.86%
[8]; pH 7.4, Inhibition of CYP 2E1 (%), tested concentration 66 μM
  inhibition at 40 min, 66 µM: 97.99 ± 0.66%
[9]
  inhibition at 30 min, 16.5 µM: 49.8 ± 2.42%
  inhibition at 30 min, 66 µM: 96.98 ± 0.19%

## COc1c(O)cc(O)c2c(=O)cc(-c3ccccc3)oc12 [Wongonin]
[5]; tested concentration 33 μM
  Inhibition of CYP 2E1 (%): 21.87 ± 1.90%

## O=c1ccc2ccc(O)cc2o1 [Umbelliferone]
[10]; 33 µM
  Inhibition of CYP 2E1 (%): −571.97 ± 117.56%
[10]; 66 µM
  Inhibition of CYP 2E1 (%): −1081.56 ± 168.00%
[8]; [11]
  inhibition at 40 min, 16.5 µM: -280 ± 19.5%

## Oc1cc(O)c2c(c1)O[C@H](c1ccc(O)c(O)c1)[C@H](O)C2 [(−)-Epicatechin]
[5]; tested concentration 16.5 μM
  Inhibition of CYP 2E1 (%): 18.27 ± 9.34%
[5]; tested concentration 33 μM
  Inhibition of CYP 2E1 (%): 15.02 ± 5.50%
[5]; tested concentration 66 μM
  Inhibition of CYP 2E1 (%): 2.57 ± 11.60%

## CCCCC[C@H](O)CC(=O)CCc1ccc(O)c(OC)c1 [6-Gingerol]
[5]; tested concentration 33 μM
  Inhibition of CYP 2E1 (%): 39.83 ± 2.32%

## CCN(CC)C(=S)S [DDTC, Diethyldithiocarbamic acid]
[10]; 0.03 μM
  HFC synthesis: 256.00 pmol
[10]; 0.091 μM
  HFC synthesis: 202.00 pmol
[10]; 2.47 μM
  HFC synthesis: 55.18 pmol
[10]; 7.4 μM
  HFC synthesis: 21.08 pmol
[10]; 22.2 μM
  HFC synthesis: 15.10 pmol
[7]; 50 μM
  6-OH-CZX concentration: 1644.5 pmol
[7]; 100 μM
  6-OH-CZX concentration: 431.2 pmol
[8]; pH 7.4, Inhibition of CYP 2E1 (%), DDTC 0.091 μM
  inhibition at 40 min, 0.091 μM: 8.71%
[8]; pH 7.4, Inhibition of CYP 2E1 (%), DDTC 2.47 μM
  inhibition at 40 min, 2.47 μM: 75.1%
[8]; pH 7.4, Inhibition of CYP 2E1 (%), DDTC 7.4 μM
  inhibition at 40 min, 7.4 μM: 90.5%
[8]; pH 7.4, Inhibition of CYP 2E1 (%), DDTC 22.2 μM
  inhibition at 40 min, 22.2 μM: 93.2%
[9]
  inhibition at 30 min, 50 μM: 48.7%
  inhibition at 30 min, 100 μM: 87.6%

## Oc1cc(O)c2c(c1)O[C@H](c1ccc(O)c(O)c1)[C@@H](O)C2 [(+)-Catechin]
[5]; tested concentration 16.5 μM
  Inhibition of CYP 2E1 (%): 41.53 ± 7.62%
[5]; tested concentration 33 μM
  Inhibition of CYP 2E1 (%): 33.83 ± 8.76%
[5]; tested concentration 66 μM
  Inhibition of CYP 2E1 (%): 16.45 ± 9.67%

## O=c1cc(-c2ccccc2)oc2ccc3ccccc3c12 [β-naphthoflavone]
[5]; tested concentration 16.5 μM
  Inhibition of CYP 2E1 (%): 6.52 ± 6.64%
[5]; tested concentration 33 μM
  Inhibition of CYP 2E1 (%): 16.83 ± 0.96%
[5]; tested concentration 66 μM
  Inhibition of CYP 2E1 (%): 15.40 ± 12.94%

## COc1ccc([C@@H]2CC(=O)c3c(O)cc(O[C@@H]4O[C@H](CO[C@@H]5O[C@@H](C)[C@H](O)[C@@H](O)[C@H]5O)[C@@H](O)[C@H](O)[C@H]4O)cc3O2)cc1O [Hesperidin]
[4]; tested concentration 16.5 μM
  Inhibition of CYP 2E1 (%): 45.32 ± 1.57%
[4]; tested concentration 33 μM
  Inhibition of CYP 2E1 (%): 50.91 ± 2.81%
[4]; tested concentration 66 μM
  Inhibition of CYP 2E1 (%): 58.57 ± 3.78%

## O=C(O[C@@H]1Cc2c(O)cc(O)cc2O[C@@H]1c1cc(O)c(O)c(O)c1)c1cc(O)c(O)c(O)c1 [(−)-Epigallocetechin-3-gallate]
[4]; tested concentration 16.5 μM
  Inhibition of CYP 2E1 (%): 50.19 ± 1.89%
[4]; tested concentration 33 μM
  Inhibition of CYP 2E1 (%): 60.53 ± 2.06%
[4]; tested concentration 66 μM
  Inhibition of CYP 2E1 (%): 72.16 ± 1.02%

## Oc1cc(O)c2c(c1)O[C@H](c1cc(O)c(O)c(O)c1)[C@H](O)C2 [(−)-Epigallocatechin]
[4]; tested concentration 16.5 μM
  Inhibition of CYP 2E1 (%): 38.95 ± 1.92%
[4]; tested concentration 33 μM
  Inhibition of CYP 2E1 (%): 36.40 ± 2.18%
[4]; tested concentration 66 μM
  Inhibition of CYP 2E1 (%): 57.08 ± 1.85%
